Measured values: PubChem BioAssay (NCI)
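All cell lines were grown in 96-well plates and treated with compound for 48 hours. TGI: total growth inhibition.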

Assays:
Experiment in all cases: inhibition of tumour cell growth, NCI panel, 48 h
HT29 colon = test system: HT29 colon
TK-10 renal = test system: TK-10 renal
XF 498 CNS = test system: XF 498 CNS
NCI-H226 lung = test system: NCI-H226 lung
A549 NSCLC = test system: A549 NSCLC
IGROV1 ovarian = test system: IGROV1 ovarian
SR leukemia = test system: SR leukemia
OVCAR-8 ovarian = test system: OVCAR-8 ovarian
SNB-75 CNS = test system: SNB-75 CNS
SK-MEL-2 melanoma = test system: SK-MEL-2 melanoma
SNB-19 CNS = test system: SNB-19 CNS
HCT-116 colon = test system: HCT-116 colon
HCC-2998 colon = test system: HCC-2998 colon
EKVX NSCLC = test system: EKVX NSCLC
HOP-62 NSCLC = test system: HOP-62 NSCLC
DLD-1 colon = test system: DLD-1 colon
SN12C renal = test system: SN12C renal
KM20L2 colon = test system: KM20L2 colon
UO-31 renal = test system: UO-31 renal
UACC-257 melanoma = test system: UACC-257 melanoma
RXF 393 renal = test system: RXF 393 renal
HL-60(TB) leukemia = test system: HL-60(TB) leukemia
SK-OV-3 ovarian = test system: SK-OV-3 ovarian
PC-3 prostate = test system: PC-3 prostate
A498 renal = test system: A498 renal
BT-549 breast = test system: BT-549 breast
COLO 205 colon = test system: COLO 205 colon
MDA-MB-435 = test system: MDA-MB-435
SF-268 CNS = test system: SF-268 CNS
OVCAR-5 ovarian = test system: OVCAR-5 ovarian
HS 578T breast = test system: HS 578T breast
NCI-H522 lung = test system: NCI-H522 lung
786-0 renal = test system: 786-0 renal
CAKI-1 renal = test system: CAKI-1 renal
MALME-3M melanoma = test system: MALME-3M melanoma
UACC-62 melanoma = test system: UACC-62 melanoma
MOLT-4 leukemia = test system: MOLT-4 leukemia
CCRF-CEM leukemia = test system: CCRF-CEM leukemia
NCI-H23 lung = test system: NCI-H23 lung
K-562 leukemia = test system: K-562 leukemia
NCI-H460 lung = test system: NCI-H460 lung
NCI/ADR-RES ovarian = test system: NCI/ADR-RES ovarian
KM12 colon = test system: KM12 colon
HOP-92 NSCLC = test system: HOP-92 NSCLC
ACHN renal = test system: ACHN renal
MCF7 breast = test system: MCF7 breast
DU-145 prostate = test system: DU-145 prostate
M14 melanoma = test system: M14 melanoma
HCT-15 colon = test system: HCT-15 colon
U251 CNS = test system: U251 CNS
SW-620 colon = test system: SW-620 colon
OVCAR-4 ovarian = test system: OVCAR-4 ovarian
SF-539 CNS = test system: SF-539 CNS
SF-295 CNS = test system: SF-295 CNS
LOX IMVI melanoma = test system: LOX IMVI melanoma
MDA-N = test system: MDA-N
MDA-MB-231 breast = test system: MDA-MB-231 breast
SK-MEL-28 melanoma = test system: SK-MEL-28 melanoma
T-47D breast = test system: T-47D breast
SK-MEL-5 melanoma = test system: SK-MEL-5 melanoma

COc1c(C)cc2c(c1O)C1C3[C@H]4SC[C@@]5(NCCC6=C5NC5C=CC=CC65)C(=O)OCC(c5c6c(c(C)c(OC(C)=O)c54)OCO6)N3[C@@H](O)C(C2)N1C (some centres not stated)
TGI (HT29 colon): 10.3 µM | TGI (TK-10 renal): 12.8 µM | TGI (XF 498 CNS): < 0.01 µM | TGI (NCI-H226 lung): 0.0859 µM | TGI (A549 NSCLC): 1.72 µM | TGI (IGROV1 ovarian): 1.85 µM | TGI (SR leukemia): > 100 µM | TGI (OVCAR-8 ovarian): < 0.01 µM | TGI (SNB-75 CNS): < 0.01 µM | TGI (SK-MEL-2 melanoma): < 0.01 µM | TGI (SNB-19 CNS): 3.64 µM | TGI (HCT-116 colon): > 100 µM | TGI (HCC-2998 colon): 0.0109 µM | TGI (EKVX NSCLC): 0.24 µM | TGI (HOP-62 NSCLC): < 0.01 µM | TGI (DLD-1 colon): 1.92 µM | TGI (SN12C renal): 1.3 µM | TGI (KM20L2 colon): 1.45 µM | TGI (UO-31 renal): 0.0112 µM | TGI (UACC-257 melanoma): < 0.01 µM | TGI (RXF 393 renal): < 0.01 µM

CC1=C(/C=C/Cl)CC(Cl)C(C)(Cl)C1 (configuration not stated)
TGI (HL-60(TB) leukemia): 60.5 µM | TGI (HT29 colon): > 100 µM | TGI (SK-OV-3 ovarian): > 100 µM | TGI (PC-3 prostate): > 100 µM | TGI (TK-10 renal): > 100 µM | TGI (A498 renal): > 100 µM | TGI (BT-549 breast): > 100 µM | TGI (COLO 205 colon): > 100 µM | TGI (NCI-H226 lung): > 100 µM | TGI (MDA-MB-435): > 100 µM | TGI (SF-268 CNS): > 100 µM | TGI (A549 NSCLC): > 100 µM | TGI (OVCAR-5 ovarian): > 100 µM | TGI (HS 578T breast): > 100 µM | TGI (NCI-H522 lung): > 100 µM | TGI (786-0 renal): > 100 µM | TGI (CAKI-1 renal): > 100 µM | TGI (IGROV1 ovarian): > 100 µM | TGI (MALME-3M melanoma): > 100 µM | TGI (SR leukemia): > 100 µM | TGI (OVCAR-8 ovarian): > 100 µM | TGI (SNB-75 CNS): > 100 µM | TGI (SK-MEL-2 melanoma): > 100 µM | TGI (SNB-19 CNS): > 100 µM | TGI (HCT-116 colon): > 100 µM | TGI (UACC-62 melanoma): > 100 µM | TGI (MOLT-4 leukemia): > 100 µM | TGI (CCRF-CEM leukemia): 74.2 µM | TGI (NCI-H23 lung): > 100 µM | TGI (K-562 leukemia): > 100 µM | TGI (HCC-2998 colon): > 100 µM | TGI (EKVX NSCLC): > 100 µM | TGI (NCI-H460 lung): > 100 µM | TGI (NCI/ADR-RES ovarian): > 100 µM | TGI (KM12 colon): > 100 µM | TGI (HOP-92 NSCLC): > 100 µM | TGI (ACHN renal): > 100 µM | TGI (MCF7 breast): > 100 µM | TGI (DU-145 prostate): > 100 µM | TGI (M14 melanoma): > 100 µM | TGI (HCT-15 colon): > 100 µM | TGI (U251 CNS): > 100 µM | TGI (SW-620 colon): > 100 µM | TGI (SN12C renal): > 100 µM | TGI (UO-31 renal): > 100 µM | TGI (OVCAR-4 ovarian): > 100 µM | TGI (SF-539 CNS): > 100 µM | TGI (UACC-257 melanoma): > 100 µM | TGI (SF-295 CNS): > 100 µM | TGI (LOX IMVI melanoma): > 100 µM | TGI (MDA-N): > 100 µM | TGI (MDA-MB-231 breast): > 100 µM | TGI (SK-MEL-28 melanoma): > 100 µM | TGI (T-47D breast): > 100 µM | TGI (SK-MEL-5 melanoma): > 100 µM | TGI (RXF 393 renal): 71.3 µM
